Laboratory results as given in patent publication US10596162B2 (WYETH LLC, priority 2005, dated 2020).

Tests used:
NCI-H1650 cells = experiment: Generation of drug-resistant NCI-H1650 colonies; assay type: cell-based; details: for generation of drug-resistant clones in vitro: NCI-H1650, irreversible inhibitors at concentrations above 10 μM, even after ethyl methane sulfonate mutagenesis
ERBB2 = ERBB2 (Homo sapiens, UniProt P04626); details: read-out: IC50 for ERBB2; cited from earlier work
[1] = tested on: NCI-H1650 cells (delE746-A750 EGFR); experiment: Proliferation/cell killing of bronchoalveolar cancer cell line, crystal violet staining; details: NCI-H1650 vs NCI-H1666
[2] = tested on: EGFR autophosphorylation, AKT and MAPK phosphorylation in NCI-H1975 cells (L858R and T790M EGFR); experiment: Immunoblotting of EGFR signaling in T790M cell line; assay type: cell-based
Method: Total EGFR, AKT, and MAPK are shown as loading controls.
(§1) Immunoblotting and Signaling Studies. […] Lysates were prepared in 2× gel loading buffer, sonicated, boiled, and then separated by 10% SDS/PAGE, followed by electrotransfer to polyvinylidene fluoride (PVDF) membranes, and immunoblotting. Antibodies used were phospho-EGFR Y1068 and phospho-mitogen-activated protein kinase (MAPK) (Cell Signaling Technology, Beverly, Mass.), phospho-AKT (BioSource International, Camarillo, Calif.), and total EGFR, MAPK, AKT, and tubulin (Santa Cruz Biotechnology).

[3] = tested on: EGFR autophosphorylation (Y1068), AKT and MAPK phosphorylation in NCI-H1650 cells; experiment: Immunoblotting of EGFR signaling in parental cells; assay type: cell-based; details: delE746-A750 EGFR
Method: Viable cells were counted 72 h after treatment with double-stranded RNA and are shown as a fraction relative to cells treated with nonspecific siRNA, with standard deviations based on triplicate samples. […] Rhodamine-tagged EGF is used to label EGFR at 5 and 20 rain, after addition of ligand. […] (Zeiss microscope, ×63 magnification).
as §1

Sequence of ERBB2 (P04626 23-1255): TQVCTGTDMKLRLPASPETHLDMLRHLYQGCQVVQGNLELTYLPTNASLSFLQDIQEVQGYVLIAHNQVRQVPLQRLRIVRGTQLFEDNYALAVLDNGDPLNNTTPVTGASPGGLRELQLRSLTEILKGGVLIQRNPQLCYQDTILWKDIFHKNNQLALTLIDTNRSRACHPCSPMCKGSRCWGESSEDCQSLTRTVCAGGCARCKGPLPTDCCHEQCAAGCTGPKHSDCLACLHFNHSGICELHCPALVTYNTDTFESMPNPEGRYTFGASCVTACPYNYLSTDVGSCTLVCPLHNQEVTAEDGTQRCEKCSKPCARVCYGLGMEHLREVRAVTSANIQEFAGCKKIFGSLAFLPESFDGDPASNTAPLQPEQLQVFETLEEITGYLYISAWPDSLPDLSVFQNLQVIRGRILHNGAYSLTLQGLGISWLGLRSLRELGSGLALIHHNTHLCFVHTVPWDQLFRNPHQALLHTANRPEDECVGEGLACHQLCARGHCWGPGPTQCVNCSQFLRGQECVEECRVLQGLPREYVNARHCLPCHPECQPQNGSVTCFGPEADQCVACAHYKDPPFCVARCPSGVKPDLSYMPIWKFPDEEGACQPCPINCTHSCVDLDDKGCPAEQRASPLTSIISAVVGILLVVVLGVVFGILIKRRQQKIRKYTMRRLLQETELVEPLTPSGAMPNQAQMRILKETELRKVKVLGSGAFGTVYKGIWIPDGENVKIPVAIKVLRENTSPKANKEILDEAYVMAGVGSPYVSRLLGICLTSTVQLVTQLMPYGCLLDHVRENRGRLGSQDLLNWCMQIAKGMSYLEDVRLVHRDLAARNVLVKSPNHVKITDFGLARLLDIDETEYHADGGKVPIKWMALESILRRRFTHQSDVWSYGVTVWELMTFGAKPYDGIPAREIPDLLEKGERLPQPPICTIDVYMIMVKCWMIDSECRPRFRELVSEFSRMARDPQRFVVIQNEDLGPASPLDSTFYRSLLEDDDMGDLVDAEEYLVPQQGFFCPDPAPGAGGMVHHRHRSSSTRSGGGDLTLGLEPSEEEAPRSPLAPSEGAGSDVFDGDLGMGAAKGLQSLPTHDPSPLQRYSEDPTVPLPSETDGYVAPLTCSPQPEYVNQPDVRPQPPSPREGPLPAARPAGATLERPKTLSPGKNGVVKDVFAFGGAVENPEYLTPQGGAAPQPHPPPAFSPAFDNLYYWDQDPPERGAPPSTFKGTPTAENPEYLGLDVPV

Structure (SMILES)	frequency of drug-resistant colonies (NCI-H1650 cells; 20 μM gefitinib, irrespective of mutagen treatment)	generation of drug-resistant clones in vitro (NCI-H1650 cells)	IC50 (ERBB2) [nM]	killing of NSCLC cells harboring an EGFR mutation compared with cells expressing wild-type receptor [1]	suppression of ligand-induced EGFR autophosphorylation and downstream AKT and MAPK phosphorylation [2]	effectiveness relative to gefitinib in suppressing EGFR autophosphorylation (Y1068), AKT and MAPK phosphorylation [3] [fold]
COc1cc2ncnc(Nc3ccc(F)c(Cl)c3)c2cc1OCCCN1CCOCC1 [gefitinib, Gefitinib, reference compound]	≈ 10^−5	readily generated				
CCOc1cc2ncc(C#N)c(Nc3ccc(F)c(Cl)c3)c2cc1NC(=O)/C=C/CN(C)C [EKB-569]		not readily generated	1300	increased cell killing		
CCOc1cc2ncc(C#N)c(Nc3ccc(OCc4cccc(F)c4)c(Cl)c3)c2cc1NC(=O)/C=C/CN(C)C [HKI-357]		not readily generated		increased cell killing	considerably more effective than gefitinib	10
